Measurements: ChEMBL document CHEMBL5331104, “Discovery of BRD4-HDAC Dual Inhibitors with Improved Fungal Selectivity and Potent Synergistic Antifungal Activity against Fluconazole-Resistant Candida albicans” (J Med Chem, 2023)
Converted amounts (≈) assume the structure as drawn. The source made the active and inactive calls. The calls are words filed in the database; no cut-off is given here.

Columns and labels:
[Candida] auris [1] = Synergetic antifungal activity against Candida auris 0029 assessed as fractional inhibitory concentration index incubated for 24 hrs in the presence of fluconazole by checkerboard microdilution method; assay type: functional, Candidozyma auris
Candida albicans [2] = assay: Antifungal activity against Candida albicans 0304103 infected in ICR mouse assessed as decrease in kidney fungal burden at 10 mg/kg, ip administered for 5 consecutive days in the presence of fluconazole; assay type: functional, organism-based; details: time 5.0 day
Candida albicans [3] = assay: Antifungal activity against Candida albicans 9884 assessed as microbial growth inhibition; assay type: functional
Candida albicans [4] = assay: Antibiofilm activity against FLC-resistant Candida albicans 0304103 assessed as reduction in fungal growth at 32 ug/mL and measured for 48 hrs by time-growth curve assay; assay type: functional, organism-based; details: dose 32.0 µg/ml
Candida albicans [5] = assay: Synergetic antifungal activity against Candida albicans 10061 assessed as fractional inhibitory concentration index incubated for 24 hrs in the presence of fluconazole by checkerboard microdilution method; assay type: functional
Candida albicans [6] = assay: Synergetic antifungal activity against Candida albicans 9884 assessed as fractional inhibitory concentration index incubated for 24 hrs in the presence of fluconazole by checkerboard microdilution method; assay type: functional
Candida albicans [7] = assay: Downregulation of GCA1 expression in Candida albicans 0304103 at 32 ug/mL incubated for 24 hrs in the presence of fluconazole by RT q-PCR analysis; assay type: functional; details: dose 32.0 µg/ml
[Candida] auris [8] = Synergetic antifungal activity against Candida auris 0030 assessed as fractional inhibitory concentration index incubated for 24 hrs in the presence of fluconazole by checkerboard microdilution method; assay type: functional, Candidozyma auris
Candida albicans [9] = assay: Downregulation of MDR1 expression in Candida albicans 0304103 at 32 ug/mL incubated for 24 hrs by RT q-PCR analysis; assay type: functional; details: dose 32.0 µg/ml
Candida albicans [10] = assay: Downregulation of GCA1 expression in Candida albicans 0304103 at 32 ug/mL incubated for 24 hrs by RT q-PCR analysis; assay type: functional; details: dose 32.0 µg/ml
[Candida] auris [11] = Synergetic antifungal activity against Candida auris 0029 assessed as microbial growth inhibition incubated for 24 hrs in the presence of fluconazole by checkerboard microdilution method; assay type: functional; details: Candidozyma auris
Candida albicans [12] = assay: Downregulation of CDR1 expression in Candida albicans 0304103 at 32 ug/mL incubated for 24 hrs by RT q-PCR analysis; assay type: functional; details: dose 32.0 µg/ml
Candida albicans [13] = assay: Downregulation of CDR1 expression in Candida albicans 0304103 at 32 ug/mL incubated for 24 hrs in the presence of fluconazole by RT q-PCR analysis; assay type: functional; details: dose 32.0 µg/ml
Cryptococcus neoformans [14] = assay: Antifungal activity against Cryptococcus neoformans 011405 assessed as microbial growth inhibition; assay type: functional
Cryptococcus neoformans [15] = assay: Antifungal activity against Cryptococcus neoformans H99 assessed as fungal growth inhibition incubated for 24 hrs by broth dilution method; assay type: functional
Candida albicans [16] = assay: Antifungal activity against Candida albicans 0304103 assessed as reduction in yeast to hypha transition at 32 ug/mL incubated for 2 hrs by inverse fluorescence microscopy; assay type: functional, organism-based; details: dose 32.0 µg/ml
Candida albicans [17] = assay: Downregulation of ERG11 expression in Candida albicans 0304103 at 32 ug/mL incubated for 24 hrs in the presence of fluconazole by RT q-PCR analysis; assay type: functional; details: dose 32.0 µg/ml
Candida albicans [18] = assay: Antifungal activity against Candida albicans SC5314 assessed as fungal growth inhibition incubated for 24 hrs by broth dilution method; assay type: functional
HL-60 = assay: Antiproliferative activity against human HL-60 cells incubated for 48 hrs by CCK8 assay; assay type: functional, cell-based; details: HL-60, 48 h
Candida albicans [19] = assay: Antibiofilm activity against FLC-resistant Candida albicans 0304103 assessed as inhibition of biofilm formation at 64 ug/mL incubated for 24 hrs by XTT reduction assay; assay type: functional, organism-based; details: dose 64.0 µg/ml
Candida albicans [20] = assay: Synergetic antifungal activity against Candida albicans 9884 assessed as microbial growth inhibition incubated for 24 hrs in the presence of fluconazole by checkerboard microdilution method; assay type: functional
Candida albicans [21] = assay: Antifungal activity against Candida albicans 10061 assessed as microbial growth inhibition; assay type: functional
Candida albicans [22] = assay: Synergetic antifungal activity against Candida albicans 10061 assessed as microbial growth inhibition incubated for 24 hrs in the presence of fluconazole by checkerboard microdilution method; assay type: functional
HEL = assay: Antiproliferative activity against human HEL cells incubated for 48 hrs by CCK8 assay; assay type: functional, cell-based
Cryptococcus neoformans [23] = assay: Synergetic antifungal activity against Cryptococcus neoformans 011405 assessed as microbial growth inhibition incubated for 24 hrs in the presence of fluconazole by checkerboard microdilution method; assay type: functional
Candida albicans [24] = assay: Antifungal activity against Candida albicans 0304103 infected in ICR mouse assessed as reduction in kidney fungal burden at 10 mg/kg, ip administered for 5 consecutive days; assay type: functional, organism-based; details: time 5.0 day
Histone deacetylase 1 = Histone deacetylase 1 (Homo sapiens, UniProt Q13547); assay: Inhibition of full-length recombinant human HDAC1 (1 to 482 residues) expressed in baculovirus infected insect cells using […] as substrate incubated for 30 mins by fluorescence based analysis; parameters: species or system Insect cell
Candida albicans [25] = assay: Antifungal activity against Candida albicans 9172 assessed as microbial growth inhibition; assay type: functional
Candida albicans [26] = assay: Synergistic antibiofilm activity against FLC-resistant Candida albicans 0304103 assessed as inhibition of biofilm formation at 64 ug/mL incubated for 24 hrs in presence of by XTT reduction assay relative to control; assay type: functional; parameters: scale not given: the % may be the effect or the level left; details: dose 64 µg/ml
Candida albicans [27] = assay: Downregulation of CDR2 expression in Candida albicans 0304103 at 32 ug/mL incubated for 24 hrs in the presence of fluconazole by RT q-PCR analysis; assay type: functional; details: dose 32.0 µg/ml
[Candida] auris [28] = Antifungal activity against Candida auris 0029 assessed as microbial growth inhibition; assay type: functional; details: Candidozyma auris
Candida albicans [29] = assay: Synergetic antifungal activity against Candida albicans 9172 assessed as microbial growth inhibition incubated for 24 hrs in the presence of fluconazole by checkerboard microdilution method; assay type: functional
Nakaseomyces glabratus [30] = assay: Antifungal activity against Candida glabrata 4408 assessed as microbial growth inhibition; assay type: functional
Candida albicans [31] = assay: Downregulation of ADH5 expression in Candida albicans 0304103 at 32 ug/mL incubated for 24 hrs by RT q-PCR analysis; assay type: functional; details: dose 32.0 µg/ml
Candida albicans [32] = assay: microbe, parasite or virus in culture; assay type: functional; details: 0304103, time 24 hrs
Description: Synergetic antifungal activity against Candida albicans 0304103 assessed as microbial growth inhibition incubated for 24 hrs in the presence of fluconazole by checkerboard microdilution method

[Candida] auris [33] = Antifungal activity against Candida auris 0030 assessed as microbial growth inhibition; assay type: functional; details: Candidozyma auris
Candida albicans [34] = assay: Synergistic antibiofilm activity against FLC-resistant Candida albicans 0304103 assessed as inhibition of fungal growth at 32 ug/mL and measured for 48 hrs in the presence of fluconazole by time-growth curve assay; assay type: functional; parameters: scale not given: the % may be the effect or the level left; details: dose 32 µg/ml
Candida albicans [35] = assay: microbe, parasite or virus in culture; assay type: functional; details: 0304103
Description: Antifungal activity against Candida albicans 0304103 assessed as microbial growth inhibition

Candida albicans [36] = assay: Synergistic antifungal activity against Candida albicans 0304103 assessed as reduction in yeast to hypha transition at 32 ug/mL incubated for 2 hrs in the presence of fluconazole by inverse fluorescence microscopy; assay type: functional, organism-based; details: dose 32.0 µg/ml
Candida albicans [37] = assay: Downregulation of CDR2 expression in Candida albicans 0304103 at 32 ug/mL incubated for 24 hrs by RT q-PCR analysis; assay type: functional; details: dose 32.0 µg/ml
Candida albicans [38] = assay: Synergetic antifungal activity against Candida albicans 9172 assessed as fractional inhibitory concentration index incubated for 24 hrs in the presence of fluconazole by checkerboard microdilution method; assay type: functional
Candida albicans [39] = assay: Downregulation of ERG11 expression in Candida albicans 0304103 at 32 ug/mL incubated for 24 hrs by RT q-PCR analysis; assay type: functional; details: dose 32.0 µg/ml
Candida albicans [40] = assay: Downregulation of ADH5 expression in Candida albicans 0304103 at 32 ug/mL incubated for 24 hrs in the presence of fluconazole by RT q-PCR analysis; assay type: functional; details: dose 32.0 µg/ml
in vitro = details: human, HUVEC cells
Description: Cytotoxicity against HUVECs assessed as inhibition of cell growth incubated for 48 hrs by CCK8 assay

[Candida] auris [41] = Synergetic antifungal activity against Candida auris 0030 assessed as microbial growth inhibition incubated for 24 hrs in the presence of fluconazole by checkerboard microdilution method; assay type: functional; details: Candidozyma auris
K562 = assay: Antiproliferative activity against human K562 cells incubated for 48 hrs by CCK8 assay; assay type: functional, cell-based; details: K562, 48 h
Histone deacetylase = assay: Inhibition of total HDAC in human HUVEC cells using Boc-Lys(Ac)-AMC as substrate preincubated for 12 hrs followed by substrate addition measured after 6 hrs by microtiter plate reader analysis; assay type: cell-based
Cryptococcus neoformans [42] = assay: Synergetic antifungal activity against Cryptococcus neoformans 011405 assessed as fractional inhibitory concentration index incubated for 24 hrs in the presence of fluconazole by checkerboard microdilution method; assay type: functional
Nakaseomyces glabratus [43] = assay: Synergetic antifungal activity against Candida glabrata 4408 assessed as fractional inhibitory concentration index incubated for 24 hrs in the presence of fluconazole by checkerboard microdilution method; assay type: functional
Nakaseomyces glabratus [44] = assay: Synergetic antifungal activity against Candida glabrata 4408 assessed as microbial growth inhibition incubated for 24 hrs in the presence of fluconazole by checkerboard microdilution method; assay type: functional
Candida albicans [45] = assay: Downregulation of MDR1 expression in Candida albicans 0304103 at 32 ug/mL incubated for 24 hrs in the presence of fluconazole by RT q-PCR analysis; assay type: functional; details: dose 32.0 µg/ml
Candida albicans [46] = assay type: functional, 0304103; details: time 24 hrs
Description: Synergetic antifungal activity against Candida albicans 0304103 assessed as fractional inhibitory concentration index incubated for 24 hrs in the presence of fluconazole by checkerboard microdilution method

Chain of Histone deacetylase 1 (Q13547 whole entry, the tested form may be a part): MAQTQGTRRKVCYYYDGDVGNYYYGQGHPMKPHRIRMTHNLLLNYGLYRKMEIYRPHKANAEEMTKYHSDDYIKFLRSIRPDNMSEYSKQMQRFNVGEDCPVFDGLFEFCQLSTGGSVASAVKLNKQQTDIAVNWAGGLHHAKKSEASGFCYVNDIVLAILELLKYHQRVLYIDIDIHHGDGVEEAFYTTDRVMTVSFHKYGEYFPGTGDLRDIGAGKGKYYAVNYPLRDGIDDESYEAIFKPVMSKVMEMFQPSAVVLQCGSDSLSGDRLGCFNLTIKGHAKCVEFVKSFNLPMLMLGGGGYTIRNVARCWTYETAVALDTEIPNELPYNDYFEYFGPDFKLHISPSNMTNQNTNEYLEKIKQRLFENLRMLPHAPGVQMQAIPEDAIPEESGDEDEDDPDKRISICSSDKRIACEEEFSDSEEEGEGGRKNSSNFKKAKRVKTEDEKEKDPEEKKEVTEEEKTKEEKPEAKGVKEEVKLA

With `Cc1nnc2n1-c1sc3c(c1C(c1ccc(Cl)cc1)=N[C@H]2CC(=O)NCc1ccc(C(=O)NO)cc1)CCCC3` the “fractional inhibitory concentration index (FICI)” value ([Candida] auris [1]) was 1.5, the Activity (Candida albicans [2]) was “Active” and the MIC80 (Candida albicans [3]) was over 64 µg/mL. The Activity (Candida albicans [4]) was “inactive”, the “fractional inhibitory concentration index (FICI)” value (Candida albicans [5]) was 0.047 and the “fractional inhibitory concentration index (FICI)” value (Candida albicans [6]) was 0.19. The Activity (Candida albicans [7]) was “Active”, the “fractional inhibitory concentration index (FICI)” value ([Candida] auris [8]) was 1.5 and the Activity (Candida albicans [9]) was “Active”. The Activity (Candida albicans [10]) was “Active”, the MIC80 ([Candida] auris [11]) was 32 µg/mL and the Activity (Candida albicans [12]) was “Active”. The Activity (Candida albicans [13]) was “Active”, the MIC80 (Cryptococcus neoformans [14]) was 32 µg/mL (≈ 55.6 µM) and the MIC80 (Cryptococcus neoformans [15]) was 8 µg/mL (≈ 13.9 µM). The Activity (Candida albicans [16]) was “inactive”, the Activity (Candida albicans [17]) was “Active” and the MIC80 (Candida albicans [18]) was over 64 µg/mL. For the same compound, the IC50 (HL-60) was 3.1 µM, the Activity (Candida albicans [19]) was “inactive” and the MIC80 (Candida albicans [20]) was 4 µg/mL. It also gave an MIC80 (Candida albicans [21]) of over 64 µg/mL, an MIC80 (Candida albicans [22]) of 2 µg/mL and an IC50 (HEL) of 7.2 µM. The MIC80 (Cryptococcus neoformans [23]) was 2 µg/mL, the Activity (Candida albicans [24]) was “inactive” and the IC50 (Histone deacetylase 1) was 2.4 µM. For the same compound, the MIC80 (Candida albicans [25]) was over 64 µg/mL, the Activity (Candida albicans [26]) was 80% and the Activity (Candida albicans [27]) was “Active”. It also gave an MIC80 ([Candida] auris [28]) of over 64 µg/mL, an MIC80 (Candida albicans [29]) of 4 µg/mL and an MIC80 (Nakaseomyces glabratus [30]) of 8 µg/mL (≈ 13.9 µM). The Activity (Candida albicans [31]) was “Active”, the MIC80 (Candida albicans [32]) was 2 µg/mL (≈ 3.48 µM) and the MIC80 ([Candida] auris [33]) was over 64 µg/mL. For the same compound, the Activity (Candida albicans [34]) was 100%, the MIC80 (Candida albicans [35]) was over 64 µg/mL and the Activity (Candida albicans [36]) was “Active”. The Activity (Candida albicans [37]) was “Active”, the “fractional inhibitory concentration index (FICI)” value (Candida albicans [38]) was 0.07 and the Activity (Candida albicans [39]) was “Active”. The Activity (Candida albicans [40]) was “Active”, the IC50 at 48 h (in vitro) was 18 µM and the MIC80 ([Candida] auris [41]) was 32 µg/mL. The IC50 (K562) was over 10 µM, the IC50 (Histone deacetylase) was 4.3 µM and the “fractional inhibitory concentration index (FICI)” value (Cryptococcus neoformans [42]) was 0.31. For the same compound, the “fractional inhibitory concentration index (FICI)” value (Nakaseomyces glabratus [43]) was 0.28, the MIC80 (Nakaseomyces glabratus [44]) was 2 µg/mL and the Activity (Candida albicans [45]) was “Active”. The “fractional inhibitory concentration index (FICI)” value (Candida albicans [46]) was 0.063.
